Oligonucleotides are written 5' to 3', each unit as a sugar letter and its base; * is a phosphorothioate linkage, no mark a phosphodiester; rarer units and linkages stand in square brackets, end groups in braces. Plain capitals give the bases only. d = 2'-deoxy (DNA); r = 2'-OH (RNA)
Assays:
Type in all cases: cell-based
[1] = tested on: human PBMC; assay: Human PBMC IFN-α secretion, ELISA
Description: (§1) In order to investigate the possibility of using cholesteryl ester-modified RNA oligomer in place of RNA oligomer plus cationic lipid, RNA oligomer GUGUGUGU was prepared with (R 1058) and without (R 1006) a 3′ cholesteryl ester modification. These two RNA oligomers with and without DOTAP, were added over a range of concentrations to overnight cultures of human PBMC. Culture supernatants were harvested, and human TNF-α, IL-12 p40, and IFN-α were measured by ELISA using matched antibody pairs from BD-Pharmingen according to the manufacturer's protocol.
(§2) RNA oligomers GUGUGUGU, GUGUGUG, GUGUGU, GUGUG, GUGU, GUG, and GU, with and without DOTAP, were added over a range of concentrations to overnight cultures of human PBMC. Culture supernatants were harvested, and human TNF-α, IL-12 p40, and IFN-α were measured by ELISA using matched antibody pairs from BD-Pharmingen according to the manufacturer's protocol.
as §2, with “oligomers,” for “oligomers GUGUGUGU, GUGUGUG, GUGUGU, GUGUG, GUGU, GUG, and GU,”
In like manner, an all-phosphodiester 40-mer capable of forming a stem-loop structure and having a base sequence as provided by 5′-[…]-3′ (R 1041; SEQ ID NO:10) was synthesized and tested in overnight culture with human PBMC.

[2] = tested on: human PBMC; assay: Human PBMC TNF-α secretion, ELISA; details: for TNF-α response of human PBMC (in words): Example 1, FIG. 2, RNA 50 μg/ml; for TNF-α response of human PBMC (in words) / dose-response of TNF-α secretion: 16 hours; for dose-response of TNF-α secretion: Example 2, 10, 3 or 1 μg RNA with 10 μg DOTAP per 200 μl well
Description: (§3) Human peripheral blood mononuclear cells (PBMCs) were isolated from healthy donors, plated at 3×10^5 cells/well, stimulated in vitro with various test and control immunostimulatory agents for 16 hours, and then analyzed by enzyme-linked immunosorbent assay (ELISA) using matched antibody pairs from BD-Pharmingen for secreted cytokines IL-12 p40 and TNF-α, performed according to the manufacturer's protocol. Also included were certain negative controls, including medium alone and DOTAP (10 μg/200 μl culture well; “Liposomes”) alone. The control immunostimulatory agents included the imidazoquinolone R-848 (2 μg/ml), lipopolysaccharide (LPS; 1 μg/ml), Pam3Cys (5 μg/ml), poly IC (50 μg/ml), and CpG DNA (50 μg/ml). These are reported ligands for TLR7, TLR4, TLR2, TLR3, and TLR9, respectively. Test immunostimulatory agents included the following RNA molecules, each at 50 μg/ml, with and without DOTAP (10 μg total “with Liposomes” and “without Liposomes”, respectively): GUGUUUAC alone; GUAGGCAC alone; GUGUUUAC in combination with GUAGGCAC; GUAGGA; GAAGGCAC; CUAGGCAC; CUCGGCAC; and CCCCCCCC. These RNA oligonucleotides each contained a phosphorothioate linkage between the penultimate and 3′ terminal nucleoside.
(§4) The experiments described in the preceding example were repeated with varied concentrations of RNA oligonucleotides in order to assess the dose-response behavior of human PBMCs to G,U-containing RNA oligonucleotides of the invention. A total of 10, 3 or 1 μg RNA was added to 10 μg DOTAP and then added to the 200 μl culture wells. After 16 hours IL-12 p40 and TNF-α ELISAs were performed as described in Example 1.
as §1, §2
as §2, with “oligomers,” for “oligomers GUGUGUGU, GUGUGUG, GUGUGU, GUGUG, GUGU, GUG, and GU,”
Human PBMC were cultured overnight in the presence of added DNA:RNA conjugate, with and without DOTAP. Culture supernatants were harvested and human TNF-α, IL-6, IL-12 p40, IP-10, and IFN-α were measured by ELISA using matched antibody pairs from BD-Pharmingen according to the manufacturer's protocol.
Human PBMC were cultured overnight in the presence of various concentrations (1, 3, and 10 μg/ml) of tRNA obtained from wheat germ, bovine, yeast, and E. coli sources, added to the culture medium with and without DOTAP. Culture supernatants were harvested and human TNF-α and IL-12 p40 were measured by ELISA using matched antibody pairs from BD-Pharmingen according to the manufacturer's protocol. […] In addition, E. coli tRNA at 3 and 10 μg/ml induced minor amounts of both cytokines even without DOTAP. […]
FIG. 10 depicts the responsiveness of human PBMC to stringent response factor (SRF). SRF is produced by rapidly growing bacteria (in this case Listeria monocytogenes) in rich media until their late log phase. The bacteria were pelleted and resuspended in an equal volume of PBS for 24 h. The mixture is centrifuged to remove the bacteria. […]

[3] = tested on: human PBMC; assay: Human PBMC IL-12 p40 secretion, ELISA; details: for IL-12 p40 response of human PBMC (in words): Example 1, FIG. 1, RNA 50 μg/ml with and without DOTAP, R-848 2 μg/ml, LPS 1 μg/ml, Pam3Cys 5 μg/ml, poly IC 50 μg/ml; for IL-12 p40 response of human PBMC (in words) / dose-response of IL-12 p40 secretion: 16 hours; for dose-response of IL-12 p40 secretion: Example 2, FIG. 3, 10, 3 or 1 μg RNA with 10 μg DOTAP per 200 μl well
Description: as §3
as §4, with “1. […]” for “1.”
as §2, with “protocol. […]” for “protocol.”

[4] = Table 1, human PBMC overnight culture, with DOTAP
[5] = Table 2, oligomer length, human PBMC overnight, including DOTAP
[6] = Table 3, internucleoside linkages, human PBMC overnight, including DOTAP
[7] = Table 3, internucleoside linkages, human PBMC overnight, including DOTAP, read-out: TNF-α EC50
[8] = Table 3, internucleoside linkages, human PBMC overnight, including DOTAP, read-out: IFN-α EC50

“5′-CACACACUGCUUAAGCGCUUGCCUGCUUAAGUAGUGUGUG-3′ (RNA, phosphodiester; forms stem-loop structure) [R 1041, all-phosphodiester 40-mer capable of forming a stem-loop structure]” was tested. Which IFN-α induction maximum ([1]; overnight culture with human PBMC) did it give?
Its IFN-α induction maximum is 5000 pg/mL.

What about the EC50 ([1]; overnight culture with human PBMC, read-out: IFN-α induction EC50) of the same substance?
The EC50 was under 0.1 µM.

How did the “TNF response of human PBMC” value ([2]; FIG. 15, 30 μM) turn out when “5′-GUUGUGGUUGUGGUUGUG-3′ (chemistry not given here) [SEQ ID NO:1, G,U-rich RNA oligonucleotide]” was run?
Its value is “responsive”.

With CCCCCCCC as the substance, how does the “TNF-α response of human PBMC (in words)” value [2] read?
The value was “did not secrete significant amounts”.

And the “dose-response of TNF-α secretion” value [2]?
The value was “did not appear to secrete significant amounts”.

And the “IL-12 p40 response of human PBMC (in words)” value [3]?
The value was “did not secrete significant amounts”.

What about the “dose-response of IL-12 p40 secretion” value [3] of the same substance?
Its value is “appeared not to secrete”.

Which “dose-response of TNF-α secretion” value [2] does the source give for CUAGGCAC here?
The value was “increasing amounts”.

What about the “dose-response of IL-12 p40 secretion” value [3] of the same substance?
The value was “increasing amounts”.

For CUCGGCAC, which “dose-response of TNF-α secretion” value [2] is on record?
The value was “increasing amounts”.

What about the “dose-response of IL-12 p40 secretion” value [3] of the same substance?
Its value is “increasing amounts”.

G*U*G*U*G*U*G*U [R 1006] was tested. Which “TNF-α + DOTAP max” value [2, 4] did it give?
The value was 40000 pg/mL.

And the EC50 ([2]; Table 1, human PBMC overnight culture, with DOTAP, read-out: TNF-α + DOTAP EC50)?
Its EC50 is 2.8 µM.

And the “TNF-α − DOTAP max” value ([2]; Table 1, human PBMC overnight culture, without DOTAP)?
The value was 2200 pg/mL.

And the EC50 ([2]; Table 1, human PBMC overnight culture, without DOTAP, read-out: TNF-α − DOTAP EC50)?
Its EC50 is 7.8 µM.

And the TNF-α max [2, 5]?
The TNF-α max was 40000 pg/mL.

And the EC50 ([2]; Table 2, oligomer length, human PBMC overnight, including DOTAP, read-out: TNF-α EC50)?
The EC50 was 2.8 µM.

And the TNF-α max [2, 6]?
The TNF-α max was 40000 pg/mL.

What about the EC50 [2, 7] of the same substance?
Its EC50 is 2.8 µM.

And the EC50 [3, 5]?
The EC50 was 1.6 µM.

And the “IL-12 p40 max” value [3, 5]?
The value was 7000 pg/mL.

And the “IFN-α + DOTAP max” value [1, 4]?
The value was 5000 pg/mL.

What about the EC50 ([1]; Table 1, human PBMC overnight culture, with DOTAP, read-out: IFN-α + DOTAP EC50) of the same substance?
Its EC50 is 4.5 µM.

And the IFN-α max [1, 5]?
The IFN-α max was 5000 pg/mL.

What about the EC50 ([1]; Table 2, oligomer length, human PBMC overnight, including DOTAP, read-out: IFN-α EC50) of the same substance?
The EC50 was 4.5 µM.

And the IFN-α max [1, 6]?
Its IFN-α max is 5000 pg/mL.

And the EC50 [1, 8]?
The EC50 was 4.5 µM.

Which TNF-α max ([2]; Table 4, DNA:RNA conjugates, human PBMC overnight, including DOTAP) does the source give for “G*U*G*U*G*U*G*U_dG_dG*dG*dG*dG*dG (rG*rU*rG*rU*rG*rU*rG*rUdGdG*dG*dG*dG*dG) [R 1060]” here?
Its TNF-α max is 20000 pg/mL.

What about the EC50 ([2]; Table 4, DNA:RNA conjugates, human PBMC overnight, including DOTAP, read-out: TNF-α EC50) of the same substance?
The EC50 was 4.9 µM.

Which results are given for G*U_G*U*G*U*G*U [R 1054]?
TNF-α max [2, 6]: 40000 pg/mL; EC50 [2, 7]: 5.6 µM; IFN-α max [1, 6]: 3700 pg/mL; EC50 [1, 8]: 6.7 µM

Which TNF-α max [2, 6] does the source give for G*U_G*U_G*U*G*U [R 1055] here?
The TNF-α max was 20000 pg/mL.

And the EC50 [2, 7]?
Its EC50 is over 20 µM.

G*U_G*U_G*U_G*U [R 1056] was tested. Which TNF-α max [2, 6] did it give?
Its TNF-α max is 12000 pg/mL.

And the EC50 [2, 7]?
The EC50 was over 20 µM.

For GAAGGCAC, which “TNF-α response of human PBMC (in words)” value [2] is on record?
Its value is “did not secrete significant amounts”.

And the “dose-response of TNF-α secretion” value [2]?
The value was “did not appear to secrete significant amounts”.

What about the “IL-12 p40 response of human PBMC (in words)” value [3] of the same substance?
Its value is “did not secrete significant amounts”.

And the “dose-response of IL-12 p40 secretion” value [3]?
Its value is “appeared not to secrete”.

Source: patent US9428536B2, “Immunostimulatory G, U-containing oligoribonucleotides” (Zoetis Belgium SA, priority 2002, dated 2016)
